Results as given in ChEMBL document CHEMBL1201862, “PubChem BioAssay data set” (2004).
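Compound exposure: 48 hours, 5 concentrations, 96-well plates. GI50 = concentration required for 50% inhibition of growth.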 Calls of active or inactive are those of the source. Rule as the data show it: active = GI50 up to about 1.1 µM and inactive = higher.

Legend:
Assay in all cases: growth of human tumour cells (NCI), 48 h
[1] = system: UO-31
[2] = system: K562
[3] = system: HCT-15
[4] = system: NCI-H23
[5] = system: HL-60
[6] = system: LOX IMVI
[7] = system: NCI/ADR-RES
[8] = system: UACC-257
[9] = system: SK-MEL-28
[10] = system: MDA-MB-231
[11] = system: T47D
[12] = system: MDA-N
[13] = system: A498
[14] = system: CAKI-1
[15] = system: KM12
[16] = system: SNB-19
[17] = system: MOLT-4
[18] = system: OVCAR-5
[19] = system: HOP-62
[20] = system: RPMI-8226

SMILES	GI50 [1]	GI50 [2]	GI50 [3] [µM]	GI50 [4]	GI50 [5]	GI50 [6]	GI50 [7]	GI50 [8]	GI50 [9]	GI50 [10]	GI50 [11]	GI50 [12]	GI50 [13]	GI50 [14]	GI50 [15]	GI50 [16]	GI50 [17]	GI50 [18]	GI50 [19]	GI50 [20]
O=C(NCCCN(CCCCN(CCCNC(=O)c1cc(S(=O)(=O)O)cc(O)c1O)C(=O)c1cc(S(=O)(=O)O)cc(O)c1O)C(=O)c1cc(S(=O)(=O)O)cc(O)c1O)c1cc(S(=O)(=O)O)cc(O)c1O	> 100 µM (inactive)	> 100 µM (inactive)	> 100	> 100 µM (inactive)	66.1 µM (inactive)	98.4 µM (inactive)	> 100 µM (inactive)	> 100 µM (inactive)	> 100 µM (inactive)	> 100 µM (inactive)	> 100 µM (inactive)	> 100 µM (inactive)	> 100 µM (inactive)	> 100 µM (inactive)	> 100 µM (inactive)	> 100 µM (inactive)				
O=c1c2ccccc2n2c(-c3ccccc3O)nnc2n1-c1ccccc1	2.76 µM (inactive)	> 100 µM (inactive)	> 100	> 100 µM (inactive)	> 100 µM (inactive)	> 100 µM (inactive)	> 100 µM (inactive)	> 100 µM (inactive)	> 100 µM (inactive)	> 100 µM (inactive)	> 100 µM (inactive)	> 100 µM (inactive)	> 100 µM (inactive)	> 100 µM (inactive)	> 100 µM (inactive)	> 100 µM (inactive)	> 100 µM (inactive)	> 100 µM (inactive)	> 100 µM (inactive)	
Cc1ccc(-c2cc(N)n(-c3nc4c(c(=O)n(C)c(=O)n4C)n3C)n2)cc1	> 100 µM (inactive)	> 100 µM (inactive)	> 100	67 µM (inactive)	> 100 µM (inactive)		95.1 µM (inactive)	> 100 µM (inactive)	23.1 µM (inactive)	> 100 µM (inactive)	> 100 µM (inactive)	> 100 µM (inactive)	> 100 µM (inactive)	> 100 µM (inactive)	> 100 µM (inactive)	94.4 µM (inactive)	> 100 µM (inactive)	> 100 µM (inactive)	21.7 µM (inactive)	> 100 µM (inactive)
N#CC(C#N)=c1c(=O)c2c3ccccc3cc3cccc1c32			> 100	> 100 µM (inactive)	68.1 µM (inactive)	> 100 µM (inactive)	> 100 µM (inactive)	> 100 µM (inactive)	89.9 µM (inactive)	> 100 µM (inactive)	> 100 µM (inactive)	> 100 µM (inactive)	> 100 µM (inactive)	> 100 µM (inactive)	58.7 µM (inactive)	> 100 µM (inactive)	70.3 µM (inactive)	> 100 µM (inactive)	29 µM (inactive)	> 100 µM (inactive)
O=C(ON=C1c2ccccc2C(Br)C(Br)c2ccccc21)c1cc([N+](=O)[O-])cc([N+](=O)[O-])c1 (stereo not given)		16.9 µM (inactive)	20.5	20.3 µM (inactive)	0.158 µM (active)	13.9 µM (inactive)	19.6 µM (inactive)	18 µM (inactive)	18.9 µM (inactive)	19.2 µM (inactive)	35.2 µM (inactive)	22.1 µM (inactive)	17.6 µM (inactive)	20.5 µM (inactive)	19.4 µM (inactive)	24.1 µM (inactive)	7.45 µM (inactive)	22.4 µM (inactive)	18 µM (inactive)	6.81 µM (inactive)
C1=C(c2ccccc2)NC2=N[C@H]3CCCC[C@@H]3N2C1c1ccccc1 (stereo not given in full)	12.2 µM (inactive)	5.15 µM (inactive)	11.4	12.7 µM (inactive)	10.3 µM (inactive)	15.3 µM (inactive)	12 µM (inactive)	14.6 µM (inactive)	14.3 µM (inactive)	15.8 µM (inactive)	16.4 µM (inactive)	15.5 µM (inactive)	16.4 µM (inactive)	16.1 µM (inactive)	10.1 µM (inactive)	14.6 µM (inactive)	7.74 µM (inactive)	13.5 µM (inactive)		4.82 µM (inactive)
C=C1CC[C@H](O)C(C)(C)[C@@H]1CC/C(C)=C/CC/C=C(\C)CC/C=C(\C)CCC=C(C)C	> 100 µM (inactive)	> 100 µM (inactive)	87.3	45.7 µM (inactive)	13.5 µM (inactive)	> 100 µM (inactive)	> 100 µM (inactive)	> 100 µM (inactive)	> 100 µM (inactive)	> 100 µM (inactive)	18.7 µM (inactive)	> 100 µM (inactive)	> 100 µM (inactive)	> 100 µM (inactive)	> 100 µM (inactive)	> 100 µM (inactive)	> 100 µM (inactive)	> 100 µM (inactive)	> 100 µM (inactive)	
C/C(=N\NC(N)=S)c1sc(-n2nc(-c3ccccc3)cc2-c2ccccc2)nc1C	69.7 µM (inactive)		94.4	> 100 µM (inactive)	54.6 µM (inactive)	71.9 µM (inactive)	67.1 µM (inactive)	85.5 µM (inactive)	> 100 µM (inactive)	43.3 µM (inactive)	23.2 µM (inactive)	> 100 µM (inactive)	> 100 µM (inactive)	> 100 µM (inactive)	> 100 µM (inactive)	> 100 µM (inactive)	27.9 µM (inactive)	> 100 µM (inactive)	> 100 µM (inactive)	16.9 µM (inactive)
O=C(O)c1ccccc1/C=N\N=C1NCCN1	40.9 µM (inactive)	> 100 µM (inactive)	> 100	> 100 µM (inactive)	> 100 µM (inactive)	> 100 µM (inactive)	> 100 µM (inactive)	> 100 µM (inactive)		> 100 µM (inactive)	> 100 µM (inactive)	> 100 µM (inactive)	> 100 µM (inactive)	> 100 µM (inactive)	> 100 µM (inactive)	> 100 µM (inactive)	> 100 µM (inactive)	> 100 µM (inactive)	> 100 µM (inactive)	> 100 µM (inactive)
C=[N+](CNC(=O)CNC(=O)C(Cc1ccc([N+](=O)[O-])cc1)NC(=O)OC(C)(C)C)C(=O)CNC(=O)C(Cc1ccc([N+](=O)[O-])cc1)NC(=O)OC(C)(C)C (stereo not given)	> 100 µM (inactive)	19 µM (inactive)	> 100	68.1 µM (inactive)	13.3 µM (inactive)	15.7 µM (inactive)	> 100 µM (inactive)		30.1 µM (inactive)	25.7 µM (inactive)	> 10 µM (inactive)	> 10 µM (inactive)	30.7 µM (inactive)	> 100 µM (inactive)	53.1 µM (inactive)	37 µM (inactive)	17 µM (inactive)	> 100 µM (inactive)	> 100 µM (inactive)	16.9 µM (inactive)
COc1cc(/C=C2\C[C@H]3[C@@H]4CC=C5C[C@@H](N6CCCC6)CC[C@]5(C)[C@H]4CC[C@]3(C)[C@H]2OC(C)=O)cc(OC)c1OC	15 µM (inactive)		12.6	15.2 µM (inactive)	21.9 µM (inactive)		16.3 µM (inactive)	19.6 µM (inactive)	19 µM (inactive)	16.3 µM (inactive)	20.3 µM (inactive)	10.9 µM (inactive)	15.2 µM (inactive)	17 µM (inactive)	15.1 µM (inactive)	18.4 µM (inactive)	6.38 µM (inactive)	15.8 µM (inactive)	15.6 µM (inactive)	5.27 µM (inactive)
c1csc(-c2ccc(-c3ccc(-c4cccs4)s3)s2)c1	> 100 µM (inactive)		> 100	> 100 µM (inactive)	> 100 µM (inactive)	> 100 µM (inactive)	> 100 µM (inactive)	> 100 µM (inactive)	> 100 µM (inactive)	> 100 µM (inactive)	> 100 µM (inactive)	> 100 µM (inactive)	> 100 µM (inactive)	> 100 µM (inactive)	> 100 µM (inactive)	> 100 µM (inactive)	> 100 µM (inactive)	> 100 µM (inactive)	> 100 µM (inactive)	> 100 µM (inactive)
C/C=C1/CN2CCc3c([nH]c4ccccc34)[C@@H]2C[C@@H]1Cc1nccc2c1[nH]c1cc(O)ccc12	1.99 µM (inactive)	2.13 µM (inactive)	2.9	2.1 µM (inactive)	2.45 µM (inactive)	2.77 µM (inactive)	1.72 µM (inactive)	2.41 µM (inactive)	1.92 µM (inactive)	1.64 µM (inactive)	2.14 µM (inactive)	2.01 µM (inactive)	1.93 µM (inactive)	1.73 µM (inactive)	1.95 µM (inactive)	2.26 µM (inactive)	2.58 µM (inactive)	2.93 µM (inactive)	1.98 µM (inactive)	
CN/C(=N\n1cnnc1)OC	> 100 µM (inactive)	> 100 µM (inactive)	> 100	> 100 µM (inactive)			> 100 µM (inactive)	> 100 µM (inactive)	> 100 µM (inactive)	> 100 µM (inactive)	> 100 µM (inactive)	> 100 µM (inactive)	> 100 µM (inactive)	> 100 µM (inactive)	> 100 µM (inactive)	> 100 µM (inactive)	> 100 µM (inactive)	> 100 µM (inactive)	> 100 µM (inactive)	> 100 µM (inactive)
